Measurements published in US6620953B1, “Method for producing monoaryloxy-ansa-metallocenes” (Bassell Polyolefine GmbH, priority 1998, dated 2003).

Experiments:
[1] = Solubility comparison in toluene at room temperature; type: physicochemical; conditions: 50 mg in toluene at room temperature
[2] = Propylene polymerization with supported metallocene/MAO/SiO2 catalyst; conditions: metallocene 0.047 mmol in 30% MAO/toluene (Al/Zr=215) on SiO2; liquid propylene, 60° C., one hour
Method: (§1) 35.1 mg (0.047 mmol) of (3) were stirred in 2.1 ml of 30% strength MAO solution in toluene (Al/Zr=215) for 60 minutes at room temperature. 2 g of SiO2 (Grace XPO2107, pretreated at 140° C., 10 mbar, 10 hours) were subsequently added and the mixture was stirred for another 10 minutes. The solvent was removed in an oil pump vacuum.
A dry 2 l reactor was flushed firstly with nitrogen and subsequently propylene and charged with 1.5 l of liquid propylene. 2 ml of TEA (20% strength in Varsol) were added and the mixture was stirred for 15 minutes. The catalyst system prepared above (0.886 g) was then resuspended in 20 ml of heptane and injected into reactor and rinsed in using 15 ml of heptane. The reaction mixture was heated to the polymerization temperature of 60° C. and polymerization was carried out for one hour. The polymerization was stopped by venting the remaining propylene. The polymer was dried in a vacuum drying oven. This gave 470 g of polypropylene powder. […] The catalyst activity was 0.53 kg of PP/g of catalyst x h.
as §1, with “27.1” for “35.1”, “dimethylsilanediylbis(2-methyl-4,5-benzoindenyl)zirconium dichloride” for “(3)”, “The solvent was removed in an oil pump vacuum.” left out

solubility [1] | Compound | catalyst activity [2]
about 0.36 mmol/l | CC1=Cc2c(ccc3ccccc23)[C]12[Si](C)(C)[C]1(C(C)=Cc3c1ccc1ccccc31)[Zr]2([Cl])[Cl] (stereo not drawn) [Rac-Dimethylsilanediylbis(2-methyl-4,5-benzoindenyl)zirconium Dichloride] | 0.46 kg of PP/g of catalyst x h
> 13 mmol/L | CC1=Cc2c(ccc3ccccc23)[C]12[Si](C)(C)[C]1(C(C)=Cc3c1ccc1ccccc31)[Zr]2([Cl])[O]c1ccc(C(C)(C)C)cc1C(C)(C)C (stereo not drawn) [compound 3, Pseudo-rac-Dimethylsilanediylbis(2-methyl-4,5-benzo-indenyl)zirconium Monochloride Mono(2,4-di-tert-butylphenoxide)] | 0.53 kg of PP/g of catalyst x h
> 15 mmol/L | CC1=Cc2ccccc2[C]12[Si](C)(C)[C]1(C(C)=Cc3ccccc31)[Zr]2([Cl])[O]c1ccc(C(C)(C)C)cc1C(C)(C)C (stereo not drawn) [compound 4, Pseudo-rac-Dimethylsilanediylbis(2-methylindenyl)-zirconium Monochloride Mono(2,4-di-tert-butylphenoxide)] | –

Compound | solubility [1] | catalyst activity [2]
Cc1cc2ccccc2[c-]1[Si](C)(C)[c-]1c(C)cc2ccccc21.[Cl-].[Cl-].[Zr+4] (racemic) [Rac-Dimethylsilanediylbis(2-methylindenyl)-zirconium Dichloride] | about 2.1 mmol/l | –
